From patent US20250283046A1, “New Cell Populations and Means and Methods for their Differentiation and Preservation” (EVOTEC INTERNATIONAL GMBH, priority 2022, published 2025)

Columns and labels:
Type in all cases: cell-based, human
[1] = system: post-thaw islet-like clusters; experiment: Post-thaw recovery rate of islet-like clusters (viable cell count); settings: combination protocol, frozen at EN stage with Medium A, freezing procedure A; GSI without T3 after thawing
Method: (§1) Using the combination protocol, induced pluripotent stem cells were differentiated into EN clusters. […] Clusters were cryoprotected before freezing by addition of the basal cryoprotective medium, consisting of KnockOut™ Serum Replacement, 10 μM ROCKi and 2 μM fatty acids, with increasing concentrations of DMSO and EG, in combination with incubation steps at decreasing temperatures. The DMSO and EG concentrations during the cryoprotection protocol and the corresponding stock concentrations, along with incubation times and temperatures, are given in table 1.
EN clusters, transferred to cryogenic vials, were frozen directly after the stepwise cryoprotection treatment in a controlled rate freezer using the following protocol (freezing procedure A): • 1. The sample is cooled-down to −7.5° C. (+/−0.7° C.); • 2. […]
Recovery rates were determined after post-thaw culture of 4-6 days, i.e. differentiation into islet-like clusters, by determination of viable cell count. Clusters, dissociated into single cells, were stained and analysed for different markers with flow cytometry. […]
Subsequent to the cryoprotection, the clusters were frozen using freezing procedure A, as described. […] Recovery rates of post-thaw islet-like clusters were determined by determination of viable cell count. Viability was determined with a viability staining with PI and FDA, imaged with a fluorescence microscope. […]

[2] = system: post-thaw islet-like clusters; experiment: Single-cell RNA sequencing of post-thaw islet-like clusters; settings: second protocol, frozen at EN+1
Method: While applying the second differentiation protocol, clusters were frozen at EN+1 using the described cryoprotective medium of 7.2% DMSO+2.8% EG added within the stepwise cryoprotection treatment and freezing procedure A. After thawing the EN clusters as described, the clusters were differentiated into islet-like clusters according to the second protocol (Control) in comparison to the second protocol with extension of GSI and without T3 addition. Single-cell RNA sequencing was carried out after thawing and differentiation into islet-like clusters, after dissociation of clusters into single cells.

ILC cells [3] = experiment: Flow cytometry of islet-like clusters obtained with the second protocol; settings: second protocol with addition of GSI and removal of T3
From the text: As the combination protocol, the second protocol starts with seeding and aggregation of single pluripotent cells in suspension, and proceeds through the same intermediate stages of pancreatic embryonic development (definitive endoderm/DE, primitive gut tube, pancreatic progenitors, endocrine differentiation) to beta cell-containing islet-like clusters (ILCs) containing C-peptide^pos/insulin^pos/NKX6.1^pos beta cells. Differences to the combined protocol include the addition of a combination of BMP4 and bFGF during the first day of DE induction (see also Example 4), and longer durations of media incubations during pancreatic progenitor and endocrine induction, resulting in an overall longer time from start of differentiation to EN stage (EN stage on day 16 instead of day 14). Similar to the combined protocol, the second protocol was modified by additional gamma secretase inhibitor treatment in absence of T3 during the EN to ILC transition. The latter version of the adapted protocol is referred to “second protocol +GSI/−T3”.

islet-like clusters = experiment: Single cell RNA sequencing and histology of islet-like clusters
Method: Beta cell differentiation from iPSC aggregates was carried out using several hiPSC lines with a new protocol derived by combining two published protocols (Nostro et al., Stem Cell Reports (2015), 4(4): 591-604; Rezania et al., Nat Biotechnol (2014), 32(11): 1121-1133), further referred to as “combination protocol”. iPSCs were seeded as single cells in suspension at 1×10^6 cells/mL in mTeSR1 (StemCell Technologies Inc.; 05850) with […] Y-27632 and kept in culture in 100 mL spinner flasks on a stirring platform to form aggregates under low shear conditions (see e.g. Fok and Zandstra, Stem Cells 2005; 23:1333-1342). At day 0 of differentiation, iPSC clusters were treated with Basal medium 1 (BM1) with the addition of 100 ng/mL Activin A, 2 μM CHIR 99021 and 10 μM Y-27632 to induce definitive endoderm. On subsequent days, media change was performed as described below, and occurred daily up to day 14, every other day after that. Definitive endoderm (DE) was induced from day 0 to day 3 and gut tube (GT) was patterned from day 3 to day 6. On day 6, pancreatic progenitors (PP) were induced until day 11. Commitment to the endocrine (EN) lineage was then performed between day 11 and day 14, and day 14 EN clusters were differentiated to islet-like clusters (ILCs) until day 24 (FIG. 1). […]

ILC cells [4] = experiment: Flow cytometry of islet-like clusters differentiated from hiPSC with the combination protocol
Method: Beta cell differentiation from iPSC aggregates was carried out using several hiPSC lines with a new protocol derived by combining two published protocols (Nostro et al., Stem Cell Reports (2015), 4(4): 591-604; Rezania et al., Nat Biotechnol (2014), 32(11): 1121-1133), further referred to as “combination protocol”. iPSCs were seeded as single cells in suspension at 1×10^6 cells/mL in mTeSR1 (StemCell Technologies Inc.; 05850) with […] Y-27632 and kept in culture in 100 mL spinner flasks on a stirring platform to form aggregates under low shear conditions (see e.g. Fok and Zandstra, Stem Cells 2005; 23:1333-1342). At day 0 of differentiation, iPSC clusters were treated with Basal medium 1 (BM1) with the addition of 100 ng/mL Activin A, 2 μM CHIR 99021 and 10 μM Y-27632 to induce definitive endoderm. On subsequent days, media change was performed as described below, and occurred daily up to day 14, every other day after that. Definitive endoderm (DE) was induced from day 0 to day 3 and gut tube (GT) was patterned from day 3 to day 6. On day 6, pancreatic progenitors (PP) were induced until day 11. Commitment to the endocrine (EN) lineage was then performed between day 11 and day 14, and day 14 EN clusters were differentiated to islet-like clusters (ILCs) until day 24 (FIG. 1).
As a result, the content of chromogranin A^pos cells rose to levels above 95% (FIGS. 2A, 2C).
The addition of gamma secretase inhibitor and removal of T3 led to increased populations of pancreatic islet endocrine cells in islet-like clusters. […] In addition, the somatostatin^pos population was increased in islet-like clusters generated with the addition of gamma secretase inhibitor and removal of T3 (FIG. 7; FIG. 11; FIG. 14; FIG. 15A).
Quantification of the EC cell population in islet-like clusters was performed by FACS for serotonin^pos and C-peptide^neg cells. While islet-like clusters generated using the combination protocol (Control) contain 30% of pancreatic EC cells, the addition of gamma secretase inhibitor in absence of T3 (+GSI/−T3) led to a drastic reduction of this population, down to levels <15% (FIGS. 5A, 5B).

[5] = system: post-thaw islet-like clusters; experiment: Flow cytometry of post-thaw islet-like clusters; settings: combination protocol
Method: as §1
EN clusters, transferred to cryogenic vials, were frozen directly after the stepwise cryoprotection treatment in a controlled rate freezer using the following protocol (freezing procedure A): • 1. The sample is cooled-down to −7.5° C. (+/−0.7° C.); • 2. Induction of nucleation by mechanical agitation and inducing a supercool spot at the outer vial wall; • 3. Incubation for 15-minutes at −7.5° C.; • 4. Cool-down of sample to −40° C. at a rate of 0.3° C. per minute; • 5. Immersion of sample in liquid nitrogen; • 6. Transfer to liquid N2 tank for long-term storage.
After low-temperature storage of at least seven days, the EN clusters were thawed rapidly in a 37° C. waterbath and the cryoprotective medium is diluted with thawing medium, consisting of differentiation medium for the EN-stage as described previously, according to the combination protocol, supplemented with 20% KnockOut™ Serum Replacement and 10 μM ROCKi. After resuspension in fresh thawing medium, the EN clusters are cultured under standard culture conditions. The supplements in the thawing medium are removed by medium change after 24 hours, using differentiation medium for the EN-stage, according to the combination protocol, for further differentiation. Afterwards, the culture medium was refreshed regularly. […]
Recovery rates were determined after post-thaw culture of 4-6 days, i.e. differentiation into islet-like clusters, by determination of viable cell count. Clusters, dissociated into single cells, were stained and analysed for different markers with flow cytometry.

[6] = addition of gamma secretase inhibitor and removal of T3, compared to control
[7] = GSI in absence of T3 after thawing

## C[C@H](NC(=O)Cc1cc(F)cc(F)c1)C(=O)N[C@H]1N=C(c2ccccc2)c2ccccc2N(C)C1=O [gamma secretase inhibitor, gamma secretase inhibitor XXI (CAS 209986-17-4)]
[1]
  post-thaw recovery versus control: increases the post-thaw recovery
[2]; GSI without T3
  population of ductal cells, post-thaw: decreased to low levels
[2]; extended GSI in absence of T3
  populations of ARX^pos cells, post-thaw, versus Ctrl: increased
  populations of beta-cells, post-thaw, versus Ctrl: increased
  somatostatin (SST)^pos cells, post-thaw, versus Ctrl: increased
ILC cells [3]
  NKX6.1^pos/C-peptide^pos cells: above 65%
  serotonin^pos/C-peptide^neg cells: only a small fraction
islet-like clusters; addition of gamma secretase inhibitor and removal of T3
  ductal cells (SOX9^pos/CFTR^pos): Only residual ductal cells
islet-like clusters; [6]
  somatostatin^pos population: increased
ILC cells [4]; addition of gamma secretase inhibitor (1 μM, day 14-17) and removal of T3 after EN stage, combination protocol
  content of chromogranin A^pos cells: above 95%
ILC cells [4]; [6]
  glucagon^pos cells: Significantly higher numbers
ILC cells [4]; addition of gamma secretase inhibitor and removal of T3, FACS
  NKX6.1^pos/C-peptide^pos beta cell population: > 65%
ILC cells [4]; addition of gamma secretase inhibitor in absence of T3
  VMAT1/SLC18A1 expression: similarly reduced
ILC cells [4]; addition of gamma secretase inhibitor in absence of T3, combination protocol, control 30%
  pancreatic EC cells (serotonin^pos and C-peptide^neg): < 15%
[5]; [7]
  number of Chromogranin^pos cells in post-thaw islet-like clusters versus control: increases
  number of beta-cells in post-thaw islet-like clusters versus control: increases
[5]; GSI while omitting T3 after thawing
  C-peptide^neg/serotonin^pos cell levels in post-thaw islet-like clusters versus control: decreases
